Here are results for one molecule from patent US10407388B2, “Thiourea derivatives as activators of RORα and pharmaceutical composition containing same” (SEOUL NATIONAL UNIVERSITY R & DB FOUNDATION, priority 2011, dated 2019).

The assay has as its system white mice, common carotid artery damaged by balloon catheter. Description: Inner vascular proliferation after balloon dilatation. In kind it is in vivo. The settings on record: oral, 5 mg/kg, 14 days after balloon dilatation; H&E staining; FIG. 15. The method, then:
To verify the inhibition of angiostenosis by JC1-40, white mice were administered JC1-40 for […], followed by balloon dilatation and subsequent additional administration of JC1-40 for 14 days. An experimental group was orally administered JC1-40 at a dose of 5 mg/kg (in 0.5% carboxymethyl cellulose, 2 ml/kg) (n=5), and a control was orally administered 0.5% carboxymethlycellulose at a dose of […] (n=5). The balloon dilatation was performed as follows. The cervical portion of each with mouse was incised to expose a common carotid artery, and the internal branch was tied at a site where the common carotid artery branches into the external branch and the internal branch. The external branch was partially incised, and then ballooning was performed three times with a 2F Fogarty balloon catheter to damage blood vessels. Subsequently, the balloon catheter was removed, and the incision site was tied. After balloon dilatation, the white mice were administered the drug for 14 days and then sacrificed to cut the site in artery that included the damaged region. The obtained blood vessels of each of the JC1-40 experimental group and the control were sectioned, the inner vascular layer thereof was subjected to Hematoxylin and Eosin (H&E) staining, and then the effect of JC1-40 on the inhibition of inner vascular proliferation was examined, and the results thereof are illustrated in FIG. 15. […]

With `CNC(=S)NCc1ccc(OCc2ccccc2)cc1` [Compound 40, 1-(4-benzyloxy-benzyl)-3-methyl-thiourea], the “proliferation of the inner vascular layer by balloon dilatation” value was “inhibited”.
